The values that follow come from US6495542B1, “Benzamide derivatives as vasopressin antagonists” (Fujisawa Pharmaceutical Co., Ltd., priority 1998, dated 2002).

Molecules are shown by their SMILES. Structures can show the parent of a compound that is named as a salt.

The target of one assay is T1, human V2 receptor (Homo sapiens, UniProt P30518).
T1 construct: expressed in transfected cells
The experiment in a line: Vasopressin 2 (V2) receptor binding, 3H-vasopressin competition on membranes of CHO cells expressing human V2 receptor. Particulars: human V2 receptor in CHO cells; competition with 0.5 nm 3H-vasopressin, 2 hours at 22° C. An excerpt:
Vasopressin 2 (V2) Receptor Binding
For binding assays, a receptor cDNA was permanently expressed in Chinese hamster ovary (CHO) cells. A vector directing expression of the cDNA of a human V2 receptor was transfected into the CHO cells, and the clonal cell lines expressing the human V2 receptor were established essentially as described previously (Nakajima, Y., et. al. J. Biol. chem., 267, 2437, 1992).
DNA-transfected cells were harvested and homogenized in ice-cold […] Tris-HCl (pH 7.4), 10 mM MgCl2, 1 mM EDTA and 5 μg/ml p-amidinophenylmethylsulfonyl fluoride (A-PMSF). The homogenate was centrifuged at 500×g for 10 minutes. The supernatant was centrifuged at […] for 1 hour. The final pellet was suspended in 25 mM Tris-HCl buffer (pH 7.4, containing 10 mM MgCl2, 1 mM EDTA and 5 μg/ml A-PMSF), and stored in small aliquots at −80° C.
Competition assays were conducted at equilibrium (2 hours at 22° C.) by using 0.5 nm ^3H-vasopressin (40-87 Ci/mmol; New England Nuclear) in 100 mM Tris-HCl buffer (pH 7.4, containing 5 mM MgCl2, 5 μg/ml A-PMSF, 4 μg/ml leupeptin, 40 μg/ml bacitracin, 20 μg/ml chymostatin and 0.1% bovine serum albimin). Nonspecific binding was determined by using 1 μM vasopressin. After incubation, the reaction mixture was immediately filtered through Whatman glass filter (GF/C). The filter was washed twice with the same buffer. The radioactivity was counted by using a liquid scintillation counter. Competition activity of the test compound was represented by IC50 values.

The target of assay [1] is Vasopressin 1 (VI) Receptor (Rattus norvegicus, UniProt P30560). The assay is described as follows: Vasopressin 1 (V1) receptor binding, rat. Conditions: Test 1 V1 receptor binding. Here is the method: (§1) Vasopressin 1 (VI) Receptor Binding
Sequence of Vasopressin 1 (VI) Receptor (Rattus norvegicus, UniProt P30560) (P30560 whole entry): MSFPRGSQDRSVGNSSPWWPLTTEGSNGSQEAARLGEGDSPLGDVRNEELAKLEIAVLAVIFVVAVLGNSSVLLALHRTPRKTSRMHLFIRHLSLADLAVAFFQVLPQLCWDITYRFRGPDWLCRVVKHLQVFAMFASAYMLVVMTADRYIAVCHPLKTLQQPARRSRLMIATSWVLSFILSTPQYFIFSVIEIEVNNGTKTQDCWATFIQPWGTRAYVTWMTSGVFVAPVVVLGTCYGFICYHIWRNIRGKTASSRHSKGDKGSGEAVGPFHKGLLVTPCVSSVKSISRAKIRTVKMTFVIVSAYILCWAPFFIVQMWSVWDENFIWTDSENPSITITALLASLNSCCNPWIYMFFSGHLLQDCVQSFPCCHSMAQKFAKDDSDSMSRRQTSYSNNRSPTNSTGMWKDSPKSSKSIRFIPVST
(§2) Competition assays were conducted at equilibrium (15 minutes at 30° C.) by using 1.5 nM ^3H-vasopressin (40-87 Ci/mmol; New England Nuclear) in 100 mM Tris-HCl buffer (pH 7.4). Nonspecific binding was determined by using 1 μM vasopressin. After incubation, the reaction was terminated by adding 5 ml of ice-cold 100 mM Tris-HCl buffer (pH 7.4), and then filtered immediately through Whatman glass filter (GF/C). The filter was washed twice with the same buffer. The glass filter was placed in a liquid scintillation cocktail, and the radioactivity thereof was counted by using a liquid scintillation counter. Competition activity of the test compound was represented by IC50 values.

For assay [2], the target named is T2, Vasopressin 1 (VI) Receptor (Homo sapiens, UniProt P37288).
T2 construct: Platelet-rich plasma (PRP) was prepared by centrifugation of whole blood; from tissue; host or cells: platelet membranes from blood of a normal subject
T2 sequence (P37288 whole entry): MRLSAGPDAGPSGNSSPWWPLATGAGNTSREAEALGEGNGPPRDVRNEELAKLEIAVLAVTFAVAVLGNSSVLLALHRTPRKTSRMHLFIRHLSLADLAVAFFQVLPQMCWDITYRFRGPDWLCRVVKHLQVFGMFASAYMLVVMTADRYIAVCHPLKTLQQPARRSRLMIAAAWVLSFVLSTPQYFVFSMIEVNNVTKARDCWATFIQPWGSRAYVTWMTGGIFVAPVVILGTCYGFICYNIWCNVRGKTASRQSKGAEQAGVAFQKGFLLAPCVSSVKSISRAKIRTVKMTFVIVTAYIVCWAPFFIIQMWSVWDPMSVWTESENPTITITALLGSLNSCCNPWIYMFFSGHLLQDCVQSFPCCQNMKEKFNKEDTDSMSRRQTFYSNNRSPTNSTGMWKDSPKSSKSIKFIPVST
The assay is described as follows: Vasopressin 1 (V1) receptor binding, 3H-vasopressin competition on human platelet membranes. Conditions: competition with 1.5 nM 3H-vasopressin, 15 minutes at 30° C. Here is the method: as §1
Blood was obtained from normal subject by venipuncture. Platelet-rich plasma (PRP) was prepared by centrifugation of whole blood at 200×g for 10 minutes. PRP was centrifuged at 45,000×g for 30 minutes. The remaining pellet was resuspended in 10 volume of ice-cold 100 mM Tris-HCl buffer (pH 7.4, containing 5 mM MgCl2, 0.1% bovine serum albumin and 1 mM EDTA), and again centrifuged at 45,000×g for 30 minutes. The final pellet was resuspended in 100 mM Tris-HCl buffer. The resulting suspension was used immediately for the binding assay.
as §2

T1 sequence (P30518 whole entry): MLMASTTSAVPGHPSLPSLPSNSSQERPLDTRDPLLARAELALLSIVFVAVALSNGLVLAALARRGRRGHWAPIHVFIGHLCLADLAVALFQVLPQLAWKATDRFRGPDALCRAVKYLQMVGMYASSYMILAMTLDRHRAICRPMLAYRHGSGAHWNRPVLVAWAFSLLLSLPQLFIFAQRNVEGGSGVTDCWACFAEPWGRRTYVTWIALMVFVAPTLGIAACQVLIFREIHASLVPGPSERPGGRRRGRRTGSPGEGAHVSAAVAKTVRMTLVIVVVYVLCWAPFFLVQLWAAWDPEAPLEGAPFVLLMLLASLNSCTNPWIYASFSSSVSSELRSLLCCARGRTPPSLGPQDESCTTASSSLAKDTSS

Regarding `COc1cc(C(=O)N2CCCCc3ccccc32)ccc1C(=O)Nc1cccc2[nH]cnc12` [Example 50, N-(1H-Benzimidazol-4-yl)-2-methoxy-4-(2,3,4,5-tetrahydro-1H-1-benzazepin-1-yl)carbonylbenzamide hydrochloride], the IC50 is 69 nM at human V2 receptor, 1.8 nM in assay [1] and 0.55 nM in assay [2].

Regarding `COc1cc(C(=O)N2CCCCc3ccccc32)ccc1C(=O)Nc1cccc2[nH]c(C(=O)N(C)C)nc12` [Example 73, N-[2-(N,N-Dimethylcarbamoyl)-1H-benzimidazol-4-yl]-2-methoxy-4-(2,3,4,5-tetrahydro-1H-1-benzazepin-1-yl)carbonylbenzamide], the half-inhibitory concentration (IC50) was found to be 159 nM on human V2 receptor, 2.2 nM in assay [1] and 0.5 nM in assay [2].

Turning to `COc1cc(C(=O)N2CCCCc3ccccc32)ccc1C(=O)Nc1cccc2[nH]c(C)nc12` [Example 2, 2-methoxy-N-(2-methyl-1H-benzimidazol-4-yl)-4-(2,3,4,5-tetrahydro-1H-1-benzazepin-1-yl)-carbonylbenzamide], the results for the IC50 (on human V2 receptor; in assay [1]; in assay [2]) were 241 nM, 2.1 nM and 0.41 nM, respectively.

With `COc1cc(C(=O)N2CCCCc3ccccc32)ccc1C(=O)Nc1cccc2[nH]c(N(C)CCN)nc12` [Example 76, N-[2-[N-(2-Aminoethyl)-N-methylamino]-1H-benzimidazol-4-yl]-2-methoxy-4-(2,3,4,5-tetrahydro-1H-1-benzazepin-1-yl)carbonylbenzamide dihydrochloride], the values for the IC50 (at human V2 receptor; in assay [1]; in assay [2]) were 140 nM, 0.2 nM and 0.08 nM, respectively.

Consider `CCc1nc2c(NC(=O)c3ccc(C(=O)N4CCCCc5ccccc54)cc3OC)cccc2[nH]1` [Example 55, N-(2-Ethyl-1H-benzimidazol-4-yl)-2-methoxy-4-(2,3,4,5-tetrahydro-1H-1-benzazepin-1-yl)carbonylbenzamide hydrochloride], for which the IC50 is 104 nM on human V2 receptor, 1.7 nM in assay [1] and 0.7 nM in assay [2].
